Several values for one entry are separate records, joined by “and”; a condition that tells them apart may be missing. Identical values can stand only once.
What was measured:
[1] = system: sAPPα; test: plasma sAPPα by ELISA pre- and post-acamprosate; assay type: in vivo, human
Procedure: Test plasma samples are measured soon after collection. When necessary test samples of plasma were frozen but not subjected to repeated freeze/thaw cycles. The test samples were thawed just before use at a low temperature and mixed them completely. If necessary, the plasma samples can be diluted appropriately with the EIA buffer, and assay may be performed in duplicate measurements for the test samples and standards. Test samples in neutral pH range were used, and steps were taken to avoid the contamination with of organic solvents. Regarding the standard to quantify the sAPPα levels, a series of sAPPα standards in EIA buffer by serial dilutions, from 0.78 ng/mL to 50 ng/mL were prepared.
The ELISA plates were pre-coated with anti-human sAPPα(2B3) mouse IgG-monoclonal affinity purified (IBL). First, the wells for the reagent blank were determined, and 100 μL each of “EIA buffer” or 10 mM NaHCO3 (pH9.5) buffer was placed into each of the wells. Likewise, wells were assigned for test sample blanks, test samples and diluted standards. Next, 100 μL each of test sample blank, test sample and dilutions of standard was added to into the appropriate wells. The test sample included the plasma sample from each subject, which may vary from 5-25 μl, made up to 100 μL with the EIA buffer. The pre-coated plate was incubated overnight at 4° C. after covering it tightly with a plate lid. The plate was kept onto a rocker with gentle shaking Next day, each well of the pre-coated plate was vigorously washed with wash buffer containing 0.05% Tween 20 in phosphate buffer. This was done by filling each well with the wash buffer, leaving the pre-coated plate laid for 15-30 seconds and removing wash buffer completely from the plate by snapping. This procedure was repeated five times. After removing the remaining liquid from all wells completely by snapping the plate onto paper towel, 100 μL of labeled antibody solution was added into the wells of test samples, diluted standard and test sample blank. HRP-conjugated and labeled anti-Human APP (R101A4) mouse IgG from IBL was used. Each plate was incubated for 30 minutes at 4° C. after covering it with plate lid, and then washed the plate 5 times in the same manner as described before. To develop the color, 100 μL of the Chromogen (TMB solution) was added to into the wells, and the plate was incubated for 30 minutes at room temperature in the dark. When the liquid started turning blue (by addition of the Chromogen), 100 μL of the Stop solution (1N H2SO4) was added into the wells. The liquid was mixed by tapping the side of plate, and the liquid turned yellow by addition of the Stop solution. […] A plate reader was used and measurements were conducted measurement at 450 nm against a reagent blank. […]

[2] = safety measures and adverse effects in the FXS open-label trial; assay type: in vivo, human
Excerpt: Safety assessment and monitoring began at screen when all subjects underwent a medical history, physical examination, and full psychiatric interview. A physical examination was also completed at end point. Vital signs, including height and weight, were obtained at each study visit. At screen, genetic testing for FXS was obtained if record of molecular testing utilizing Southern Blot and PCR was not available. At screen, week 6, and endpoint, laboratory tests of blood and urine, including CBC with differential and platelets, electrolyte panel, liver associated enzymes, lipid panel, and urine pregnancy test (in females) were obtained. An electrocardiogram was also obtained at screen and endpoint.
The pilot study ran for 10 weeks. Safety lab screens were carried out at weeks 6 and 10. Physiologic parameters measured during the safety screens were as follows: vital signs, LFTs, electrolyte panels, CBC with diff/plts, lipid panel, glucose, urinalysis and ECG.
In-person clinical visits were scheduled for every two weeks. Telephonic evaluations were carried out at weeks 1, 3, and 5. Each subject was evaluated for side effects at every interaction with the practitioner.

[3] = system: glutamate or GABA receptors subtypes; conditions: xenopus oocyte model, clinically relevant concentrations; cited from earlier work
[4] = system: extracellular dopamine levels in the nucleus accumbens; conditions: rats; dependent on glycine receptor activation; cited from earlier work
[5] = caregiver reported, 12 youth with FXS

CC(=O)NCCCS(=O)(=O)O.[Ca] [acamprosate, Calcium Acetylhomotaurine]
fractional change in sAPPα-CP ([1]; individual patients 1-6, baseline to Week 12): −0.7108 and −0.3184 and 0 and −0.02825 and −0.5967 and −0.4596
sAPPα-CP, Week 12 ([1]; individual patients 1-6, titled as diagnosed with FXS, after treatment): 2.486 ng/mL and 5.056 ng/mL and 2.764 ng/mL and 4.778 ng/mL and 7.417 ng/mL and 2.694 ng/mL
mean sAPPα post-treatment ([1]; pooled 15 participants (9 FXS, 6 idiopathic ASD), pre-treatment 8.4±7.9 ng/mL, p=0.003): 5.5 ± 7.2 ng/mL
mean sAPPα levels at endpoint ([1]; six subjects of the 12-week trial, baseline 7.8 ng/mL, p=0.03): 4.2 ng/mL
Increased body rocking, mild (number of patients) ([2]; 12 youth with FXS): 1
ECG including QTc interval ([2]; FXS trial): no change in the QTc interval
laboratory measures: lipids, electrolytes, liver function tests, blood counts ([2]; FXS trial): no clinically significant or mean changes
weight, pulse, or blood pressure ([2]; FXS trial): No clinically significant changes
overall tolerability ([2]; FXS trial, 12 subjects): well tolerated overall, with no severe or serious adverse effects
Constipation, mild (n subjects) [2, 5]: 1
Diarrhea, mild (n subjects) [2, 5]: 1
Increased Anxiety, mild (n subjects) [2, 5]: 1
Increased Repetitive Behavior, mild (n subjects) [2, 5]: 2
Insomnia, mild (n subjects) [2, 5]: 1
Irritability, mild (n subjects) [2, 5]: 4
Nightmares, mild (n subjects) [2, 5]: 1
Rhinitis, mild (n subjects) [2, 5]: 1
Urinary Urgency, mild (n subjects) [2, 5]: 1
subjects who experienced a mild adverse event ([2]; nine of 12 subjects, FXS trial): 75%
direct binding to glutamate or GABA receptors subtypes [3]: no direct binding
extracellular dopamine levels in the nucleus accumbens [4]: elevates extracellular dopamine levels
